Two compounds from US20080312300A1, “Processes for the Preparation of Stable Polymorphic Form I of Ritonavir” (priority 2005, published 2008) can be followed below.

This data set is described as follows: Stability study on storage (polymorphic conversion followed by XRD). The format is physicochemical. On the procedure: A first aspect of the present invention provides stable polymorphic Form I of ritonavir having no tendency to convert to any other polymorphic form. […] The X-Ray powdered Diffraction (XRPD) pattern of stable Form I of ritonavir is provided in FIGS. 1a and 2a of the drawing.
(XRD pattern of the title compound stored at 25° C. after 3 months is depicted in FIG. 3).

Each structure is given as a SMILES string.

Consider `CC(C)c1nc(CN(C)C(=O)N[C@H](C(=O)N[C@@H](Cc2ccccc2)C[C@H](O)[C@H](Cc2ccccc2)NC(=O)OCc2cncs2)C(C)C)cs1` (single isomer, unassigned) [Form I of ritonavir, [5S-(5R*,8R*,10R*,11R*)]-10-Hydroxy-2-methyl-5-(1-methylethyl)-1-[2-(1-methylethyl)-4-thiazolyl]-3,6-dioxo-8,11-bis(phenylmethyl)-2,4,7,12-tetraazamidecan-13-oic acid, 5-thiazolylmethyl ester], for which the “stability of polymorphic form upon storage” value (prepared as per prior art process, tendency to convert to other forms, especially Form II) was “not stable”. For `CC(C)c1nc(CN(C)C(=O)N[C@H](C(=O)N[C@@H](Cc2ccccc2)C[C@H](O)[C@H](Cc2ccccc2)NC(=O)OCc2cncs2)C(C)C)cs1` (relative stereo) [Example 2, [5S-(5R*,8R*,10R*,11R*)]-10-Hydroxy-2-methyl-5-(1-methylethyl)-1-[2-(1-methylethyl)-4-thiazolyl]-3,6-dioxo-8,11-bis(phenylmethyl)-2,4,7,12-tetraazamidecan-13-oic acid, 5-thiazolylmethyl ester], the “conversion in the polymorphic form on storage” value (stored at 25° C. for 3 months, XRD pattern (FIG. 3)) is “no conversion in the polymorphic form was observed”.
